Test results published in PubChem BioAssay (NCI).
“And” between values parts separate entries of the source, which are not always exact repeats. Identical values can stand only once.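 A five-concentration, 48-hour dose response in 96-well plates underlies each endpoint, interpolated linearly between surrounding concentrations. GI50: concentration for 50% inhibition of growth. The concentration for full growth arrest is given as TGI.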

Tests used:
Experiment in all cases: DTP human tumour cell line panel, 48 h
HCT-15 colon = tested on: HCT-15 colon
K-562 leukemia = tested on: K-562 leukemia
M14 melanoma = tested on: M14 melanoma
OVCAR-8 ovarian = tested on: OVCAR-8 ovarian
RXF 393 renal = tested on: RXF 393 renal
SF-295 CNS = tested on: SF-295 CNS
SK-MEL-2 melanoma = tested on: SK-MEL-2 melanoma
UACC-62 melanoma = tested on: UACC-62 melanoma
DMS 273 small cell lung = tested on: DMS 273 small cell lung
M19-MEL melanoma = tested on: M19-MEL melanoma

## C1=C(c2ccccc2)C(c2ccc(OCCN3CCCCC3)cc2)Oc2ccccc21 (stereo not drawn)
HCT-15 colon
  GI50: 1.5 µM
  TGI: 2.99 µM
K-562 leukemia
  GI50: 1.53 µM
  TGI: 3.38 µM
M14 melanoma
  GI50: 1.73 µM
  TGI: 3.38 µM
OVCAR-8 ovarian
  GI50: 2.3 µM
  TGI: 5.91 µM
RXF 393 renal
  GI50: 1.61 µM
  TGI: 3.11 µM
SF-295 CNS
  GI50: 1.72 µM
  TGI: 3.29 µM
SK-MEL-2 melanoma
  GI50: 2.03 µM
  TGI: 4.33 µM
UACC-62 melanoma
  GI50: 1.92 µM
  TGI: 3.68 µM

## Cc1cc(C)cc(Nc2ccc([N+](=O)[O-])c(NCCN3CCOCC3)n2)c1
HCT-15 colon
  GI50: 0.000928 µM
  TGI: > 100 µM
K-562 leukemia
  TGI: > 100 µM
M14 melanoma
  GI50: 0.00162 µM
OVCAR-8 ovarian
  GI50: 0.006 µM and 0.0368 µM
  TGI: > 100 µM
RXF 393 renal
  GI50: 0.0208 µM
  TGI: 48.8 µM
SF-295 CNS
  GI50: 0.000446 µM
  TGI: 25.8 µM
SK-MEL-2 melanoma
  TGI: > 100 µM
UACC-62 melanoma
  TGI: > 100 µM

## COC(=O)/C(=C/c1ccc(OC)cc1)NC(=O)c1ccccc1
HCT-15 colon
  TGI: > 100 µM
K-562 leukemia
  TGI: > 100 µM
M14 melanoma
  TGI: > 100 µM
OVCAR-8 ovarian
  TGI: > 100 µM
RXF 393 renal
  TGI: > 100 µM
SF-295 CNS
  TGI: > 100 µM
SK-MEL-2 melanoma
  TGI: > 100 µM
UACC-62 melanoma
  TGI: > 100 µM

## C[C@@H](Oc1ccc2[nH]nc(/C=C/c3cnn(CCO)c3)c2c1)c1c(Cl)cncc1Cl
HCT-15 colon
  GI50: 0.197 µM
  TGI: 8.38 µM
K-562 leukemia
  GI50: 0.0249 µM
  TGI: > 33.9 µM
M14 melanoma
  GI50: 0.739 µM
  TGI: 3.11 µM
OVCAR-8 ovarian
  GI50: 0.329 µM
  TGI: > 32.1 µM
RXF 393 renal
  GI50: 0.0288 µM
  TGI: 0.267 µM
SF-295 CNS
  GI50: 0.0785 µM
  TGI: 23.7 µM
SK-MEL-2 melanoma
  GI50: 1.37 µM
  TGI: 3.08 µM
UACC-62 melanoma
  GI50: 1.65 µM
  TGI: 3.81 µM

## CS(=O)(=O)CCn1c(=O)c(Oc2ccc(F)cc2F)cc2cnc(NC3CCOCC3)nc21
HCT-15 colon
  GI50: > 25 µM
  TGI: > 25 µM
K-562 leukemia
  GI50: > 25 µM
  TGI: > 25 µM
M14 melanoma
  GI50: > 25 µM
  TGI: > 25 µM
OVCAR-8 ovarian
  GI50: > 25 µM
  TGI: > 25 µM
RXF 393 renal
  GI50: > 25 µM
  TGI: > 25 µM
SF-295 CNS
  GI50: > 25 µM
  TGI: > 25 µM
SK-MEL-2 melanoma
  GI50: > 25 µM
  TGI: > 25 µM
UACC-62 melanoma
  GI50: > 25 µM
  TGI: > 25 µM

## CC(=O)/C=C/C1=C(c2cccs2)c2ccccc2CC1
HCT-15 colon
  GI50: 21.8 µM
  TGI: 52.7 µM
K-562 leukemia
  GI50: 32.5 µM
  TGI: > 100 µM
M14 melanoma
  GI50: 18.8 µM
  TGI: 41.7 µM
OVCAR-8 ovarian
  GI50: 38.9 µM
  TGI: > 100 µM
RXF 393 renal
  GI50: 31.8 µM
  TGI: 78.9 µM
SF-295 CNS
  GI50: 22.5 µM
  TGI: 54.5 µM
SK-MEL-2 melanoma
  GI50: 25.6 µM
  TGI: 71.2 µM
UACC-62 melanoma
  GI50: 17.6 µM
  TGI: 33.2 µM

## NCCP(=O)(O)O
HCT-15 colon
  TGI: > 100 µM
K-562 leukemia
  TGI: > 100 µM
M14 melanoma
  TGI: > 100 µM
OVCAR-8 ovarian
  TGI: > 100 µM
RXF 393 renal
  TGI: > 100 µM
SF-295 CNS
  TGI: > 100 µM
SK-MEL-2 melanoma
  TGI: > 100 µM
UACC-62 melanoma
  TGI: > 100 µM

## C/C1=C/C(=O)O[C@@H]2C[C@@H](CC[C@H](C)/C=C\C=C\CC1)O[C@@](OCCc1ccccc1)([C@@H]1CSC(=O)N1)C2
HCT-15 colon
  GI50: 0.09 µM
  TGI: > 17.5 µM
K-562 leukemia
  GI50: 0.954 µM
  TGI: > 17.5 µM
M14 melanoma
  GI50: 0.204 µM
  TGI: > 17.5 µM
OVCAR-8 ovarian
  GI50: 1.11 µM
  TGI: > 17.5 µM
RXF 393 renal
  GI50: 0.0363 µM
  TGI: 0.158 µM
SF-295 CNS
  GI50: 0.0383 µM
  TGI: > 4.55 µM
SK-MEL-2 melanoma
  GI50: 0.917 µM
  TGI: > 13.8 µM
UACC-62 melanoma
  GI50: 0.104 µM
  TGI: > 17.5 µM

## O=C(NNS(=O)(=O)c1ccc(F)cc1)c1cccnc1Nc1ccc(Cl)cc1Cl
HCT-15 colon
  GI50: 26.8 µM
  TGI: 83.5 µM
K-562 leukemia
  GI50: 20.1 µM
  TGI: 83.2 µM
M14 melanoma
  GI50: 46.5 µM
  TGI: > 100 µM
OVCAR-8 ovarian
  GI50: 26.9 µM
  TGI: > 100 µM
RXF 393 renal
  GI50: 11.4 µM
  TGI: 27.6 µM
SF-295 CNS
  GI50: 36.9 µM
  TGI: > 100 µM
SK-MEL-2 melanoma
  GI50: 42.3 µM
  TGI: > 100 µM
UACC-62 melanoma
  GI50: 46 µM
  TGI: > 100 µM

## Cc1ccc(NC(=O)C2C(=O)N(c3ccc(C)c(C)c3)C(=O)/C2=N\NC(N)=S)cc1C (stereo not drawn)
DMS 273 small cell lung
  TGI: > 100 µM
HCT-15 colon
  TGI: > 100 µM
K-562 leukemia
  TGI: > 100 µM
M14 melanoma
  TGI: > 100 µM
M19-MEL melanoma
  TGI: > 100 µM
SF-295 CNS
  TGI: > 100 µM
SK-MEL-2 melanoma
  TGI: > 100 µM
UACC-62 melanoma
  TGI: > 100 µM

## COc1ccc(-c2nnc(N3CCN(C(=O)CN4CCN(c5ccc(Cl)cc5)CC4)CC3)nc2-c2ccc(OC)cc2)cc1
HCT-15 colon
  GI50: 15.8 µM
  TGI: > 100 µM
K-562 leukemia
  GI50: 15.2 µM
  TGI: > 100 µM
M14 melanoma
  GI50: 35.8 µM
  TGI: > 100 µM
OVCAR-8 ovarian
  GI50: 35.8 µM
  TGI: > 100 µM
RXF 393 renal
  GI50: 18.9 µM
  TGI: > 100 µM
SF-295 CNS
  GI50: 49.4 µM
  TGI: > 100 µM
SK-MEL-2 melanoma
  GI50: 35.5 µM
  TGI: > 100 µM
UACC-62 melanoma
  GI50: 31.5 µM
  TGI: > 100 µM

## CNC(=O)OC1C(O[C@H]2C[C@H]3[C@@H]4CC=C5C[C@@H](O)CC[C@]5(C)[C@H]4CC[C@]3(C)[C@H]2[C@H](C)C(=O)CCC(C)C)OCC(O)C1OC1OCC(O)C(O)C1OC(=O)c1ccc(OC)cc1 (stereo partly drawn)
HCT-15 colon
  GI50: 0.677 µM
  TGI: 4.01 µM
K-562 leukemia
  GI50: 0.0139 µM
  TGI: 0.554 µM
M14 melanoma
  GI50: 0.0137 µM
  TGI: 0.0757 µM
OVCAR-8 ovarian
  GI50: 2.82 µM
  TGI: 11.2 µM
RXF 393 renal
  GI50: < 0.00275 µM
  TGI: 0.0111 µM
SF-295 CNS
  GI50: < 0.00275 µM
  TGI: 0.00628 µM
SK-MEL-2 melanoma
  GI50: 0.00933 µM
  TGI: 0.324 µM
UACC-62 melanoma
  GI50: 0.00688 µM
  TGI: 0.0188 µM

## O=C(Nc1ccccc1O)c1ccc(CNC(=O)c2sccc2Nc2ccnc(C(F)(F)F)c2)cc1
HCT-15 colon
  GI50: 6.54 µM
  TGI: 26.8 µM
K-562 leukemia
  GI50: 5.72 µM
  TGI: 62.5 µM
M14 melanoma
  GI50: 7.87 µM
  TGI: 27.8 µM
OVCAR-8 ovarian
  GI50: 3.44 µM
  TGI: 41.2 µM
RXF 393 renal
  GI50: 3.28 µM
  TGI: 15.6 µM
SF-295 CNS
  GI50: 8.33 µM
  TGI: 21.8 µM
SK-MEL-2 melanoma
  GI50: 6.97 µM
  TGI: 28.5 µM
UACC-62 melanoma
  GI50: 4.13 µM
  TGI: 20 µM

## Cc1ccc(C2C3=C(N=c4s/c(=C/c5ccc(Br)cc5)c(=O)n42)c2ccc4ccccc4c2OCC3)cc1 (stereo not drawn)
HCT-15 colon
  GI50: 2.89 µM
  TGI: > 100 µM
K-562 leukemia
  GI50: > 100 µM
  TGI: > 100 µM
M14 melanoma
  GI50: > 100 µM
  TGI: > 100 µM
OVCAR-8 ovarian
  GI50: > 100 µM
  TGI: > 100 µM
RXF 393 renal
  GI50: > 100 µM
  TGI: > 100 µM
SF-295 CNS
  GI50: > 100 µM
  TGI: > 100 µM
SK-MEL-2 melanoma
  GI50: > 100 µM
  TGI: > 100 µM
UACC-62 melanoma
  GI50: 67.9 µM
  TGI: > 100 µM

## O=[N+]([O-])c1ccc(/C=C(/c2ccc([N+](=O)[O-])o2)S(=O)(=O)c2ccccc2)o1
HCT-15 colon
  TGI: 26 µM
K-562 leukemia
  TGI: 10.2 µM
M14 melanoma
  TGI: 25.5 µM
OVCAR-8 ovarian
  TGI: 18.3 µM
RXF 393 renal
  TGI: > 100 µM
SF-295 CNS
  TGI: 34.2 µM
SK-MEL-2 melanoma
  TGI: 35.8 µM
UACC-62 melanoma
  TGI: 19.1 µM

## COc1ccc(CC(NC(=O)[C@H](C)NC(=O)CN2CCOCC2)C(=O)N[C@@H](Cc2ccccc2)C(=O)[C@@]2(C)CO2)cc1 (stereo partly drawn)
HCT-15 colon
  GI50: 5.64 µM
  TGI: 76.3 µM
K-562 leukemia
  GI50: 0.268 µM
M14 melanoma
  GI50: 0.284 µM
  TGI: 2.5 µM
OVCAR-8 ovarian
  GI50: 0.342 µM
RXF 393 renal
  GI50: 0.237 µM
  TGI: 0.658 µM
SF-295 CNS
  GI50: 0.185 µM
  TGI: 0.587 µM
SK-MEL-2 melanoma
  GI50: 0.264 µM
  TGI: 0.974 µM
UACC-62 melanoma
  GI50: 0.182 µM
  TGI: 0.479 µM
